Measured values taken from US7977313B2, “Methods and compositions for promoting localization of pharmaceutically active agents to bone” (Affinergy, Inc., priority 2007, dated 2011).
Where two headings read alike, the source gives them in different places. Where a SMILES comes first, the peptide text is derived from it. Where no end group is shown, it is not given here. [ ]: non-standard residue; d: D form. The star is where a group is joined. Biotin = O=C1N[C@H]2[C@H](CS[C@H]2CCCCC(=O)*)N1; PEG10 = NCCOCCOCCOCCOCCOCCOCCOCCOCCOCCOCCC(=O)O

Tests used:
[1] = molecular target: demineralized bone matrix (DBM); experiment: Biotinylated peptide binding to demineralized bone matrix (ELISA-type, streptavidin-alkaline phosphatase/pNPP); design: species or system human
Experimental: Relative binding strengths of the peptides to bone, also used as a measure of binding specificity, were determined by testing serial dilutions of the peptide for binding to bone, as represented by DBM. Plotting the absorbance observed across the concentration range for each peptide sequence yielded a binding curve of the peptides to its target substrate from which can be determined an EC50. The goal of the screenings and selections was to identify one or more peptides that bind to the selected substrate with binding specificity, with an EC50 of less than or equal to about 10 μM, and for some embodiments, in the nanomolar range (<1 μM).
As a specific example, DBM was placed in a microtiter plate at a concentration of 3 mg equivalents per well, and then the wells were blocked with buffer containing 1% BSA for 1 hour at room temperature. The buffer containing 1% BSA was then aspirated from each well, and added to the wells were the serial dilutions of biotinylated peptide. The microtiter plates were incubated for 1 hour at room temperature on a plate shaker. The DBM was then allowed to settle, and the buffer was then aspirated from the wells. The DBM was washed three times with buffer-T, and then streptavidin-alkaline phosphatase was added. The microtiter plates were incubated for 1 hour at room temperature on a plate shaker. The DBM was then allowed to settle, and the buffer was then aspirated from the wells. The DBM was washed three times with buffer-T, pNPP (p-nitrophenyl phosphate) was used to develop the assay, and the absorbance was recorded at 405 nm. An estimate of the relative affinity (binding specificity, EC50) of a peptide for bone can be made by determining the concentration of peptide that gives one-half the maximal signal in the assay.
Example 1 illustrates methods to determine the relative binding strengths of peptide to bone. […] A biotin molecule was linked to the C-terminal lysine. Also shown in Table 3 are the relative binding strengths expressed as EC50 (μM) to bone as represented by DBM of human origin. It is noted that the EC50 values were the same or substantially similar when DBM of rabbit origin was used.
Relative binding strength embodiments of the compositions to bone, also used as a measure of binding specificity, were determined by testing serial dilutions of the composition for binding to bone, as described in Example 1 Section B. Plotting the absorbance observed across the concentration range for each composition yielded a binding curve and rough dissociation constant of the composition for bone. Similar to a peptide having binding specificity for bone from which the composition is made, one property of the composition embodiments is that they bind to bone with binding specificity as measured by an EC50 of less than or equal to about 10 μM, and for some embodiments, in the nanomolar range (<1 μM). Using the methods outlined in Example 1B herein, assayed were the relative binding strengths of […] illustrative composition embodiments which include the amino acid sequences shown in SEQ ID NOs: 137, 138, 139, 140, 141 & 142, see Table 7, and synthesized to include a C-terminal amino linker which was biotinylated to facilitate determination of the relative binding strengths to bone. Shown in Table 8 are the relative binding strengths of composition embodiments to bone, as represented by DBM, expressed as EC50 (in μM).

[2] = molecular target: demineralized cortical bone (DCB); experiment: Biotinylated peptide binding to demineralized cortical bone
Experimental: (§1) Relative binding strengths of the peptides to bone, also used as a measure of binding specificity, were determined by testing serial dilutions of the peptide for binding to bone, as represented by DBM. Plotting the absorbance observed across the concentration range for each peptide sequence yielded a binding curve of the peptides to its target substrate from which can be determined an EC50. The goal of the screenings and selections was to identify one or more peptides that bind to the selected substrate with binding specificity, with an EC50 of less than or equal to about 10 μM, and for some embodiments, in the nanomolar range (<1 μM). […] As a specific example, DBM was placed in a microtiter plate at a concentration of 3 mg equivalents per well, and then the wells were blocked with buffer containing 1% BSA for 1 hour at room temperature. The buffer containing 1% BSA was then aspirated from each well, and added to the wells were the serial dilutions of biotinylated peptide. The microtiter plates were incubated for 1 hour at room temperature on a plate shaker. The DBM was then allowed to settle, and the buffer was then aspirated from the wells. The DBM was washed three times with buffer-T, and then streptavidin-alkaline phosphatase was added. The microtiter plates were incubated for 1 hour at room temperature on a plate shaker. The DBM was then allowed to settle, and the buffer was then aspirated from the wells. The DBM was washed three times with buffer-T, pNPP (p-nitrophenyl phosphate) was used to develop the assay, and the absorbance was recorded at 405 nm. An estimate of the relative affinity (binding specificity, EC50) of a peptide for bone can be made by determining the concentration of peptide that gives one-half the maximal signal in the assay. Using the methodology illustrated in Example 1, the peptides illustrated in Table 3 were also tested for relative binding strength to demineralized cortical bone, and to cancellous bone, additional evidence of binding specificity for bone.

cancellous bone (CNB) = experiment: Biotinylated peptide binding to cancellous bone
Experimental: as §1

[3] = DBM of human origin, biotinylated peptide, read-out: Binding specificity for bone (e.g., DBM) EC50
[4] = demineralized bone matrix, read-out: EC50 (μM) for DBM
[5] = bone as represented by DBM, biotinylated composition, read-out: Binding specificity for bone EC50 (compositions X1-J-X2)

Row | EC50 [1, 3] | EC50 [1, 4] | EC50 [2] | EC50 (cancellous bone (CNB)) | EC50 [1, 5] | Compound
1 | < 1 µM | < 1 µM | < 1 µM | < 1 µM | – | CC[C@H](C)[C@H](NC(=O)[C@@H](N)CO)C(=O)N[C@@H](Cc1ccccc1)C(=O)N[C@@H](CO)C(=O)N[C@H](C(=O)N[C@@H](Cc1c[nH]c2ccccc12)C(=O)N[C@@H](CC(N)=O)C(=O)N1CCC[C@H]1C(=O)N[C@@H](Cc1c[nH]c2ccccc12)C(=O)N[C@@H](CO)C(=O)N1CCC[C@H]1C(=O)N[C@@H](Cc1ccc(O)cc1)C(=O)N[C@@H](CO)C(=O)N[C@H](C(=O)N[C@@H](CO)C(=O)N[C@@H](CCCNC(=N)N)C(=O)NCC(=O)N[C@@H](CO)C(=O)N[C@@H](CO)C(=O)NCC(=O)N[C@@H](CCCCNC(=O)CCCC[C@@H]1SC[C@@H]2NC(=O)N[C@@H]21)C(=O)O)C(C)C)[C@@H](C)O [compound 40] (H-SIFSTWNPWSPYSVSRGSSGK(Biotin)-OH)
2 | < 0.1 µM | < 0.1 µM | < 0.1 µM | ≤ 0.1 µM | – | CC(C)[C@H](NC(=O)[C@@H]1CCCN1C(=O)[C@H](C)NC(=O)[C@H](C)NC(=O)[C@H](CO)NC(=O)CNC(=O)[C@H](CC(N)=O)NC(=O)[C@H](Cc1c[nH]c2ccccc12)NC(=O)[C@H](Cc1ccccc1)NC(=O)CNC(=O)[C@H](Cc1c[nH]c2ccccc12)NC(=O)[C@H](Cc1c[nH]c2ccccc12)NC(=O)[C@@H](N)CO)C(=O)N[C@@H](Cc1c[nH]c2ccccc12)C(=O)N[C@@H](CO)C(=O)N[C@@H](CCCNC(=N)N)C(=O)NCC(=O)N[C@@H](CO)C(=O)N[C@@H](CO)C(=O)NCC(=O)N[C@@H](CCCCNC(=O)CCCC[C@@H]1SC[C@@H]2NC(=O)N[C@@H]21)C(=O)O [compound 41] (H-SWWGFWNGSAAPVWSRGSSGK(Biotin)-OH)
3 | < 0.1 µM | < 0.1 µM | < 0.1 µM | < 0.5 µM | – | C[C@H](NC(=O)CNC(=O)[C@H](CO)NC(=O)CNC(=O)[C@H](Cc1c[nH]c2ccccc12)NC(=O)[C@H](Cc1c[nH]c2ccccc12)NC(=O)[C@H](Cc1c[nH]c2ccccc12)NC(=O)[C@H](CO)NC(=O)CNC(=O)[C@H](Cc1ccccc1)NC(=O)[C@@H](N)CO)C(=O)N[C@@H](C)C(=O)N[C@@H](CO)C(=O)N[C@@H](CO)C(=O)N[C@@H](CCCNC(=N)N)C(=O)NCC(=O)N[C@@H](CO)C(=O)N[C@@H](CO)C(=O)NCC(=O)N[C@@H](CCCCNC(=O)CCCC[C@@H]1SC[C@@H]2NC(=O)N[C@@H]21)C(=O)O [compound 42] (H-SFGSWWWGSGAASSRGSSGK(Biotin)-OH)
4 | – | – | – | – | < 0.1 µM | CC(C)C[C@H](NC(=O)[C@H](CO)NC(=O)[C@H](CO)NC(=O)[C@H](Cc1ccccc1)NC(=O)[C@H](C)NC(=O)[C@H](CCC(=O)O)NC(=O)[C@H](Cc1c[nH]c2ccccc12)NC(=O)[C@H](C)NC(=O)CNC(=O)[C@H](C)NC(=O)CNC(=O)[C@H](CO)NC(=O)[C@H](CO)NC(=O)CNC(=O)[C@H](CCCNC(=N)N)NC(=O)[C@H](CO)NC(=O)[C@H](Cc1c[nH]c2ccccc12)NC(=O)[C@@H](NC(=O)[C@@H]1CCCN1C(=O)[C@H](C)NC(=O)[C@H](C)NC(=O)[C@H](CO)NC(=O)CNC(=O)[C@H](CC(N)=O)NC(=O)[C@H](Cc1c[nH]c2ccccc12)NC(=O)[C@H](Cc1ccccc1)NC(=O)CNC(=O)[C@H](Cc1c[nH]c2ccccc12)NC(=O)[C@H](Cc1c[nH]c2ccccc12)NC(=O)[C@@H](N)CO)C(C)C)C(=O)N[C@@H](CO)C(=O)NCC(=O)N[C@@H](CO)C(=O)N[C@@H](CCCNC(=N)N)C(=O)N[C@H](C(=O)NCC(=O)N[C@@H](CO)C(=O)N[C@@H](CO)C(=O)NCC(=O)N[C@@H](CCCCNC(=O)CCCC[C@@H]1SC[C@@H]2NC(=O)N[C@@H]21)C(=O)O)C(C)C [compound 138] (H-SWWGFWNGSAAPVWSRGSSGAGAWEAFSSLSGSRVGSSGK(Biotin)-OH; N-terminus and C-terminus assumed)
5 | – | – | – | – | < 0.5 µM | CC(C)C[C@H](NC(=O)[C@H](CO)NC(=O)[C@H](CO)NC(=O)[C@H](Cc1ccccc1)NC(=O)[C@H](C)NC(=O)[C@H](CCC(=O)O)NC(=O)[C@H](Cc1c[nH]c2ccccc12)NC(=O)[C@H](C)NC(=O)CNC(=O)CNC(=O)CNC(=O)CCOCCOCCOCCOCCOCCOCCOCCOCCOCCOCCNC(=O)CNC(=O)[C@H](CCCNC(=N)N)NC(=O)[C@H](CO)NC(=O)[C@H](CO)NC(=O)[C@H](C)NC(=O)[C@H](C)NC(=O)CNC(=O)[C@H](CO)NC(=O)CNC(=O)[C@H](Cc1c[nH]c2ccccc12)NC(=O)[C@H](Cc1c[nH]c2ccccc12)NC(=O)[C@H](Cc1c[nH]c2ccccc12)NC(=O)[C@H](CO)NC(=O)CNC(=O)[C@H](Cc1ccccc1)NC(=O)[C@@H](N)CO)C(=O)N[C@@H](CO)C(=O)NCC(=O)N[C@@H](CO)C(=O)N[C@@H](CCCNC(=N)N)C(=O)N[C@H](C(=O)NCC(=O)N[C@@H](CO)C(=O)N[C@@H](CO)C(=O)NCC(=O)N[C@@H](CCCCNC(=O)CCCC[C@@H]1SC[C@@H]2NC(=O)N[C@@H]21)C(N)=O)C(C)C [compound 141] (H-SFGSWWWGSGAASSRG[PEG10]GGGAWEAFSSLSGSRVGSSGK(Biotin)-NH2; N-terminus and C-terminus assumed)
6 | – | – | – | – | < 0.5 µM | CC(C)C[C@H](NC(=O)[C@H](CO)NC(=O)[C@H](CO)NC(=O)[C@H](Cc1ccccc1)NC(=O)[C@H](C)NC(=O)[C@H](CCC(=O)O)NC(=O)[C@H](Cc1c[nH]c2ccccc12)NC(=O)[C@H](C)NC(=O)CNC(=O)[C@H](C)NC(=O)CCOCCOCCOCCOCCOCCOCCOCCOCCOCCOCCNC(=O)CNC(=O)[C@H](CCCNC(=N)N)NC(=O)[C@H](CO)NC(=O)[C@H](CO)NC(=O)[C@H](C)NC(=O)[C@H](C)NC(=O)CNC(=O)[C@H](CO)NC(=O)CNC(=O)[C@H](Cc1c[nH]c2ccccc12)NC(=O)[C@H](Cc1c[nH]c2ccccc12)NC(=O)[C@H](Cc1c[nH]c2ccccc12)NC(=O)[C@H](CO)NC(=O)CNC(=O)[C@H](Cc1ccccc1)NC(=O)[C@@H](N)CO)C(=O)N[C@@H](CO)C(=O)NCC(=O)N[C@@H](CO)C(=O)N[C@@H](CCCNC(=N)N)C(=O)N[C@H](C(=O)NCC(=O)N[C@@H](CO)C(=O)N[C@@H](CO)C(=O)NCC(=O)N[C@@H](CCCCNC(=O)CCCC[C@@H]1SC[C@@H]2NC(=O)N[C@@H]21)C(N)=O)C(C)C [compound 142] (H-SFGSWWWGSGAASSRG[PEG10]AGAWEAFSSLSGSRVGSSGK(Biotin)-NH2; N-terminus and C-terminus assumed)
7 | – | – | – | – | < 0.5 µM | SFGSWWWGSGAASSRGSSGGGALGFPLKGEVVEGWAGSSGK(Biotin) [compound 140]
8 | – | – | – | – | < 0.5 µM | SWWGFWNGSAAPVWSRGSSESAGAWEAFSSLSGSRVGSSGK(Biotin) [compound 137]
9 | – | – | – | – | < 0.5 µM | SWWGFWNGSAAPVWSRGSSGAGALGFPLKGEVVEGWAGSSGK(Biotin) [compound 139]
